# In patent US8362017B2, “C-kit modulators and methods of use” (Exelixis, Inc., priority 2003, dated 2013):
# Molecular target: c-Kit kinase (Homo sapiens, UniProt P10721)
# Experiment: c-Kit biochemical activity assay (AlphaScreen)
# Settings: biotinylated poly(Glu, Tyr) substrate, 1 hr at ambient temperature
# Description: Kinase activity and compound inhibition are investigated using one or more of the three assay formats described below. The ATP concentrations for each assay are selected to be close to the Michaelis-Menten constant (KM) for each individual kinase. Dose-response experiments are performed at 10 different inhibitor concentrations in a 384-well plate format. The data are fitted to four-parameter equation (2) below; where Y is the observed signal, X is the inhibitor concentration, Min is the background signal in the absence of enzyme (0% enzyme activity), Max is the signal in the absence of inhibitor (100% enzyme activity), IC50 is the inhibitor concentration at 50% enzyme inhibition and H represents the empirical Hill's slope to measure the cooperativity. Typically H is close to unity. Y=Min+(Max−Min)/(1+(X/IC50)^H) Equation (2) c-Kit Assay
# c-Kit biochemical activity was assessed using AlphaScreen™ (Perldn Elmer) technology, described above. Test compounds, ATP, biotinylated poly(Glu, Tyr) and c-Kit kinase were combined in a volume of 20 μL in a 384-well white, medium binding microtiter plate (Greiner). Reaction mixtures were incubated for 1 hr at ambient temperature. Reactions were quenched by addition of 10 μL of 15-30 mg/mL AlphaScreen bead suspension containing 75 mM Hepes, pH 7.4, 300 mM NaCl, 120 mM EDTA, 0.3% BSA and 0.03% Tween-20. After 16 hr incubation at ambient temperature plates were read using an AlphaQuest reader (Perkin Elmer).
# Sequence of c-Kit kinase (P10721 26-976): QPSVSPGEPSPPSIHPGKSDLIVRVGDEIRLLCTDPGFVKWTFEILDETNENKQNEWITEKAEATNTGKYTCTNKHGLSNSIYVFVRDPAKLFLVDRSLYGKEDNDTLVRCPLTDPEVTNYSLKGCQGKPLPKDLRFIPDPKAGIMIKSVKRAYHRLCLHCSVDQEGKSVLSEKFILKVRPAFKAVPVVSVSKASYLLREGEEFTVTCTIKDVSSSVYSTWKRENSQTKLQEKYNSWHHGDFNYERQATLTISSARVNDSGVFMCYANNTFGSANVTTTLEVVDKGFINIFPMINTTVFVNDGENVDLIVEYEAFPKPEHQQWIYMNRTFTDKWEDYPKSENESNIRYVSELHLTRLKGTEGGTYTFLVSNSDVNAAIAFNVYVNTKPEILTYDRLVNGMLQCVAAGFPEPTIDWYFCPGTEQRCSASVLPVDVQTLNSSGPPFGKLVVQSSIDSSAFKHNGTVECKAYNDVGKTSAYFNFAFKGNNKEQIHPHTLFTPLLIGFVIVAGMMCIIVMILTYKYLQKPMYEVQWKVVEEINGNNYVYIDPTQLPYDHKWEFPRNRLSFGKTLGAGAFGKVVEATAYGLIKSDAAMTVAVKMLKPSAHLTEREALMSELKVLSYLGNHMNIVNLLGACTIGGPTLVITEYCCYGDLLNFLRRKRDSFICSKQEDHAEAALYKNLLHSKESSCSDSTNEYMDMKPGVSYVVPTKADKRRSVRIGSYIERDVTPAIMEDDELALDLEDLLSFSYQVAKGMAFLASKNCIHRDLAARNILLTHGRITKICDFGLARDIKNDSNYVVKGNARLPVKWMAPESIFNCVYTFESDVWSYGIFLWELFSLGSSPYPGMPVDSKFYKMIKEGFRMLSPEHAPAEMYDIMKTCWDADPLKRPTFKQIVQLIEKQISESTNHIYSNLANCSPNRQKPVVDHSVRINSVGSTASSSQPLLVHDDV
row,IC50,SMILES
1,500 to 5000 nM,"COC(=O)c1cn(-c2cccc(OCC(=O)Nc3ccc(Cl)c(C(F)(F)F)c3)c2)nn1 [Example 29, methyl 1-{3-[(2-{[4-chloro-3-(trifluoromethyl)phenyl]amino}-2-oxoethyl)oxy]phenyl}-1H-1,2,3-triazole-4-carboxylate]"
2,500 to 5000 nM,"COc1ccc(Cl)cc1NC(=O)OCc1cccc(-c2cccnc2)c1 [Example 234, (3-pyridin-3-ylphenyl)methyl [5-chloro-2-(methyloxy)phenyl]carbamate]"
3,500 to 5000 nM,"O=C(Nc1ccc(Cl)c(C(F)(F)F)c1)OCc1ccc(-n2cnnn2)cc1 [Example 235, [4-(1H-tetrazol-1-yl)phenyl]methyl [4-chloro-3-(trifluoromethyl)phenyl]carbamate]"
4,500 to 5000 nM,"COc1ccc(Cl)cc1NC(=O)OCc1cccc(-c2cncnc2)c1 [Example 236, (3-pyrimidin-5-ylphenyl)methyl [5-chloro-2-(methyloxy)phenyl]carbamate]"
5,500 to 5000 nM,"Cc1ccc(NC(=O)OCc2ccc(-c3cncnc3)cc2)cc1C [Example 237, (4-pyrimidin-5-ylphenyl)methyl (3,4-dimethylphenyl)carbamate]"
6,50 to 500 nM,"Cc1ccc(NC(=O)OCc2cccc(-c3cccnc3)c2)cc1C [Example 238, (3-pyridin-3-ylphenyl)methyl (3,4-dimethylphenyl)carbamate]"
7,500 to 5000 nM,"CC(C)(C)OC(=O)N1CCCC(NC(=O)c2nc(-c3cccc(CNC(=O)Nc4ccc(Cl)c(C(F)(F)F)c4)c3)cnc2N)C1 (stereo not drawn) [Example 239, 1,1-dimethylethyl 3-({[3-amino-6-(3-{[({[4-chloro-3-(trifluoromethyl)phenyl]amino}carbonyl)amino]methyl}phenyl)pyrazin-2-yl]carbonyl}amino)piperidine-1-carboxylate]"
8,500 to 5000 nM,"CC(C)(C)OC(=O)N1CCCC(NC(=O)c2nc(-c3ccc(CNC(=O)Nc4ccc(Cl)c(C(F)(F)F)c4)cc3)cnc2N)C1 (stereo not drawn) [Example 240, 1,1-dimethylethyl 3-({[3-amino-6-(4-{[({[4-chloro-3-(trifluoromethyl)phenyl]amino}carbonyl)amino]methyl}phenyl)pyrazin-2-yl]carbonyl}amino)piperidine-1-carboxylate]"
9,50 to 500 nM,"Nc1ncc(-c2cccc(CNC(=O)Nc3ccc(Cl)c(C(F)(F)F)c3)c2)nc1C(=O)NC1CCCNC1 (stereo not drawn) [Example 241, 3-amino-6-(3-{[({[4-chloro-3-(trifluoromethyl)phenyl]amino}carbonyl)amino]methyl}phenyl)-N-piperidin-3-ylpyrazine-2-carboxamide]"
10,50 to 500 nM,"Nc1ncc(-c2ccc(CNC(=O)Nc3ccc(Cl)c(C(F)(F)F)c3)cc2)nc1C(=O)NC1CCCNC1 (stereo not drawn) [Example 242, 3-amino-6-(4-{[({[4-chloro-3-(trifluoromethyl)phenyl]amino}carbonyl)amino]methyl}phenyl)-N-piperidin-3-ylpyrazine-2-carboxamide]"
11,500 to 5000 nM,"CC(C)(C)OC(=O)N1CCN(C(=O)c2nc(-c3cccc(CNC(=O)Nc4ccc(Cl)c(C(F)(F)F)c4)c3)cnc2N)CC1 [Example 243, 1,1-dimethylethyl 4-{[3-amino-6-(3-{[({[4-chloro-3-(trifluoromethyl)phenyl]amino}carbonyl)amino]methyl}phenyl)pyrazin-2-yl]carbonyl}piperazine-1-carboxylate]"
12,500 to 5000 nM,"CC(C)(C)OC(=O)N1CCN(C(=O)c2nc(-c3ccc(CNC(=O)Nc4ccc(Cl)c(C(F)(F)F)c4)cc3)cnc2N)CC1 [Example 244, 1,1-dimethylethyl 4-{[3-amino-6-(4-{[({[4-chloro-3-(trifluoromethyl)phenyl]amino}carbonyl)amino]methyl}phenyl)pyrazin-2-yl]carbonyl}piperazine-1-carboxylate]"
13,500 to 5000 nM,"Nc1ncc(-c2cccc(CNC(=O)Nc3ccc(Cl)c(C(F)(F)F)c3)c2)nc1C(=O)N1CCNCC1 [Example 245, N-({3-[5-amino-6-(piperazin-1-ylcarbonyl)pyrazin-2-yl]phenyl}methyl)-N′-[4-chloro-3-(trifluoromethyl)phenyl]urea]"
14,500 to 5000 nM,"Nc1ncc(-c2ccc(CNC(=O)Nc3ccc(Cl)c(C(F)(F)F)c3)cc2)nc1C(=O)N1CCNCC1 [Example 246, N-({4-[5-amino-6-(piperazin-1-ylcarbonyl)pyrazin-2-yl]phenyl}methyl)-N′-[4-chloro-3-(trifluoromethyl)phenyl]urea]"
15,50 to 500 nM,"O=C(NCc1cccc(-c2cn[nH]c2)c1)Nc1ccc(Cl)c(C(F)(F)F)c1 [Example 247, N-[4-chloro-3-(trifluoromethyl)phenyl]-N′-{[3-(1H-pyrazol-4-yl)phenyl]methyl}urea]"
16,500 to 5000 nM,"O=C(NCc1ccc(-c2cn[nH]c2)cc1)Nc1ccc(Cl)c(C(F)(F)F)c1 [Example 248, N-[4-chloro-3-(trifluoromethyl)phenyl]-N′-{[4-(1H-pyrazol-4-yl)phenyl]methyl}urea]"
17,500 to 5000 nM,"O=C(Nc1ccc(Cl)c(C(F)(F)F)c1)OCc1cccc(-c2cnc(N3CCNCC3)nc2)c1 [Example 249, [3-(2-piperazin-1-ylpyrimidin-5-yl)phenyl]methyl [4-chloro-3-(trifluoromethyl)phenyl]carbamate]"
18,500 to 5000 nM,"O=C(Nc1ccc(Cl)c(C(F)(F)F)c1)OCc1ccc(-c2cnc(N3CCNCC3)nc2)cc1 [Example 250, [4-(2-piperazin-1-ylpyrimidin-5-yl)phenyl]methyl [4-chloro-3-(trifluoromethyl)phenyl]carbamate]"
19,50 to 500 nM,"O=C(NCc1cccc(-c2cccnc2Cl)c1)Nc1ccc(Cl)c(C(F)(F)F)c1 [Example 251, N-{[3-(2-chloropyridin-3-yl)phenyl]methyl}-N′-[4-chloro-3-(trifluoromethyl)phenyl]urea]"
20,500 to 5000 nM,"O=C(NCc1ccc(-c2cccnc2Cl)cc1)Nc1ccc(Cl)c(C(F)(F)F)c1 [Example 252, N-{[4-(2-chloropyridin-3-yl)phenyl]methyl}-N′-[4-chloro-3-(trifluoromethyl)phenyl]urea]"
21,500 to 5000 nM,"O=C(NCc1cccc(-c2cccnc2F)c1)Nc1ccc(Cl)c(C(F)(F)F)c1 [Example 253, N-[4-chloro-3-(trifluoromethyl)phenyl]-N′-{[3-(2-fluoropyridin-3-yl)phenyl]methyl}urea]"
22,500 to 5000 nM,"O=C(NCc1ccc(-c2cccnc2F)cc1)Nc1ccc(Cl)c(C(F)(F)F)c1 [Example 254, N-[4-chloro-3-(trifluoromethyl)phenyl]-N′-{[4-(2-fluoropyridin-3-yl)phenyl]methyl}urea]"
23,50 to 500 nM,"O=C(Nc1cccc(C(F)(F)F)c1)OCc1cccc(-n2cnnn2)c1 [Example 255, [3-(1H-tetrazol-1-yl)phenyl]methyl [3-(trifluoromethyl)phenyl]carbamate]"
24,500 to 5000 nM,"O=C(Nc1cccc(C(F)(F)F)n1)OCc1cccc(-n2cnnn2)c1 [Example 256, [3-(1H-tetrazol-1-yl)phenyl]methyl [6-(trifluoromethyl)pyridin-2-yl]carbamate]"
25,50 to 500 nM,"O=C(Nc1cc(C(F)(F)F)ccn1)OCc1cccc(-n2cnnn2)c1 [Example 257, [3-(1H-tetrazol-1-yl)phenyl]methyl [4-(trifluoromethyl)pyridin-2-yl]carbamate]"
26,500 to 5000 nM,"CSc1ccc(-c2cccc(CNC(=O)Nc3ccc(Cl)c(C(F)(F)F)c3)c2)nc1 [Example 258, N-[4-chloro-3-(trifluoromethyl)phenyl]-N′-({3-[5-(methylthio)pyridin-2-yl]phenyl}methyl)urea]"
27,500 to 5000 nM,"Cc1ccc(-c2cccc(COC(=O)Nc3ccc(Cl)c(C(F)(F)F)c3)c2)c(C)n1 [Example 259, [3-(2,6-dimethylpyridin-3-yl)phenyl]methyl [4-chloro-3-(trifluoromethyl)phenyl]carbamate]"
28,50 to 500 nM,"COc1cncc(-c2cccc(COC(=O)Nc3ccc(Cl)c(C(F)(F)F)c3)c2)c1 [Example 260, {3-[5-(methyloxy)pyridin-3-yl]phenyl}methyl [4-chloro-3-(trifluoromethyl)phenyl]carbamate]"

row,SMILES,IC50
1,"Cc1nnnn1-c1cccc(OCC(=O)Nc2ccc(Cl)c(C(F)(F)F)c2)c1 [Example 5, N-[4-chloro-3-(trifluoromethyl)phenyl]-2-{[3-(5-methyl-1H-tetrazol-1-yl)phenyl]oxy}acetamide]",500 to 5000 nM
2,"O=C(COc1ccc(-c2cncnc2)cc1)Nc1ccc(Cl)c(C(F)(F)F)c1 [Example 7, N-[4-chloro-3-(trifluoromethyl)phenyl]-2-[(4-pyrimidin-5-ylphenyl)oxy]acetamide]",50 to 500 nM
3,"O=C(NCc1cccc(-c2ccc3nccnc3c2)c1)Nc1ccc(Cl)c(C(F)(F)F)c1 [Example 11, 1-(4-Chloro-3-trifluoromethyl-phenyl)-3-(3-quinoxalin-6-yl-benzyl)urea]",50 to 500 nM
4,"O=C(NC(=O)c1cccc(-n2cnnn2)c1)Nc1ccc(Cl)c(C(F)(F)F)c1 [Example 13, 1-(4-chloro-3-trifluoromethyl-phenyl)-3-(3-tetrazol-1-yl-benzoyl)-urea]",500 to 5000 nM
5,"Cc1ccc(-n2cnnn2)cc1OCC(=O)Nc1ccc(Cl)c(C(F)(F)F)c1 [Example 18, N-[4-chloro-3-(trifluoromethyl)phenyl]-2-{[2-methyl-5-(1H-tetrazol-1-yl)phenyl]oxy}acetamide]",> 5000 nM
